These results are taken from US8614205B2, “Glutamate receptor modulators and therapeutic agents” (priority 2009, dated 2013).

Several values for one entry are separate records, joined by “and”; a condition that tells them apart may be missing. Equal entries are not always repeated. Where only a bound is given, the exact number is not on record here.

One assay concerns the target T1, mGluR5 (Homo sapiens, UniProt P41594).
T1 construct: expression induced with doxycycline
Briefly: aequorin calcium assay, negative allosteric modulation of mGluR5. In kind it is cell-based. As to conditions: aequorin assay, agonist at EC80; 10000 = no activity observed at 10,000 nM; read-out: mGluR5 EC50. On the procedure: (§1) The ability of test compound to ameliorate the efflux of calcium cations (Ca^++) in the presence of agonist (glutamate or quisqualate) is measured by detection of light emitted by the luminescent protein aequorin triggered by binding of Ca^++. Aequorin is a photoprotein isolated from luminescent jellyfish (like various Aequorea species e.g. Aequorea victoria). Aequorin is composed of two distinct units, the apoprotein apoaequorin, with an approximate molecular weight of 22 kDa, and the prosthetic group, coelenterazine, responsible for emission of light. In the presence of molecular oxygen the two components of aequorin assemble spontaneously, forming the functional protein. Four EF-hand type regions have been identified in the structure of Aequorin and at least 3 of them function as binding sites for Ca+2 ions: Ca+2 binding to these EF hands triggers a conformational change of the protein, that leads it to oxidize its prosthetic group, coelenterazine, into excited coelenteramide and CO2. As the excited coelenteramide relaxes to the ground state, blue light (wavelength=469 nm) is emitted and can be measured by a luminometer. Negative allosteric modulator activity of test compound is expressed as a percentage of the stimulation of reference agonist (glutamate) activity at its EC80 concentration. Assay of Compounds was performed at Euroscreen SA, Gosselies, Belgium.
(§2) Cells stably transfected with mGlu1 or mGlu5 were grown 18 hours prior to the test in culture medium containing 600 ng/ml doxycycline, then were detached by gentle flushing with PBS-EDTA, recovered by centrifugation and resuspended in “assay buffer” (HBSS, 2.1 mM CaCl2, 3 μg/ml GPT (Glutamate-Pyruvate transaminase), 4 mM MEM Sodium Pyruvate, 0.1% BSA, protease free). Cells were incubated at room temperature for at least 4 h with coelenterazine-h. Dose response curves were performed using mGluR1 cells with the orthosteric agonist glutamate and negative allosteric modulator JNJ16259685. Dose response curves were performed using mGluR5 cells with the orthosteric agonist glutamate and negative allosteric modulator MPEP. For agonist testing, 30 μl of cell suspension were mixed with 30 μl of test compound or reference agonist in a 384-well plate. The resulting emission of light was recorded using the Hamamatsu Functional Drug Screening System 6000 (FDSS 6000). For negative allosteric modulator testing, 60 μl of the resulting cell suspension containing the test compound was mixed with 30 μl of the reference agonist at EC80 following an incubation of 3 min after the first injection. The resulting emission of light was recorded using FDSS 6000. […] Plates also contained the reference agonist at a concentration equivalent to the EC80 obtained during the test validation. Negative allosteric modulator activity of test compound was expressed as a percentage of the stimulation of reference agonist activity at its EC80 concentration.

Another assay deals with T2, mGluR1 (Homo sapiens, UniProt Q13255).
T2 construct: expression induced with doxycycline
T2 sequence (Q13255 19-1194): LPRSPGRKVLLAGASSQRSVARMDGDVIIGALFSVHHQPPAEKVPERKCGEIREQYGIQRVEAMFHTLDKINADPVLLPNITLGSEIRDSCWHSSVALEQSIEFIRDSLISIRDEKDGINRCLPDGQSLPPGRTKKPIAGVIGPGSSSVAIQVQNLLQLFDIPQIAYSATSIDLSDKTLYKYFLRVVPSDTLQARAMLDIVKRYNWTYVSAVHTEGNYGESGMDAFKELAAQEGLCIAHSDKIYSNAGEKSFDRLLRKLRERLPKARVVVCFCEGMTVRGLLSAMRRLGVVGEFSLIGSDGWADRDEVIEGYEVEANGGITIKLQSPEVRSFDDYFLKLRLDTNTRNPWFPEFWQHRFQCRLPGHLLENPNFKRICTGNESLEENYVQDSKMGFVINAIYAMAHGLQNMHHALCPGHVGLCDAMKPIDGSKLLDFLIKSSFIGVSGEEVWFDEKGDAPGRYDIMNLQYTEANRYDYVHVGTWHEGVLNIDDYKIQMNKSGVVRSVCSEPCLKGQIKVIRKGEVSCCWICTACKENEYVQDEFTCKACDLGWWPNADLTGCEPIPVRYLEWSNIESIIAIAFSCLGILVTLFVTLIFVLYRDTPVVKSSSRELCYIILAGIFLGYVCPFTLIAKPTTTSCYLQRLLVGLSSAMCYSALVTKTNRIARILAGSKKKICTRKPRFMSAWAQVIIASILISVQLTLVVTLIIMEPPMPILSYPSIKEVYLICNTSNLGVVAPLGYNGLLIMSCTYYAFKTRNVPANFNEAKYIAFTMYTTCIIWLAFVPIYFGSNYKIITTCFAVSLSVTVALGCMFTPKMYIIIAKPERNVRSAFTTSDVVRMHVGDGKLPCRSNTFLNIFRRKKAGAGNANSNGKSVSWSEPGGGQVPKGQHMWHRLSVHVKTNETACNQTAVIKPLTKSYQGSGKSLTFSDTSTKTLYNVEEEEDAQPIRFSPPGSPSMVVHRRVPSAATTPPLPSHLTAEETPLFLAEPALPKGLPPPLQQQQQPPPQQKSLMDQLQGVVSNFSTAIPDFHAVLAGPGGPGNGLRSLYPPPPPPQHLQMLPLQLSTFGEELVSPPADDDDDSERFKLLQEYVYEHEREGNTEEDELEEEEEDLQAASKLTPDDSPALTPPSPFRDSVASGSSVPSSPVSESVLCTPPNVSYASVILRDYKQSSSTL
Put plainly: aequorin calcium assay, negative allosteric modulation of mGluR1. In kind it is cell-based. The note with it: for mGluR1/mGluR5 Ratio: EC50 for mGluR1 divided by EC50 for mGluR5; for EC50: aequorin assay, agonist at EC80, 10000 = no activity observed at 10,000 nM. On the procedure:
as §1, §2

In assay [1] the test system is hyperalgesia in partial sciatic nerve ligation rat. Briefly: partial sciatic nerve ligation (PSN) model of neuropathic pain, paw withdrawal method. As to conditions: 100 μg intrathecal; for % MPE (0-100) 1 hr / Paw withdrawal thresholds (g; raw data) 1 hr / Raw MPE (%) 1 hr / % MPE (0-100) 3 hrs / Paw withdrawal thresholds (g; raw data) 3 hrs / Raw MPE (%) 3 hrs / % MPE (0-100) 5 hrs / Paw withdrawal thresholds (g; raw data) 5 hrs / Raw MPE (%) 5 hrs / % MPE (0-100) 24 hrs / Paw withdrawal thresholds (g; raw data) 24 hrs / Raw MPE (%) 24 hrs: PSN Sx rat. In kind it is in vivo. On the procedure:
Briefly, under gas anesthesia, the skin and muscles of the thigh were reflected to expose the sciatic nerve. About one-third to one-half of the cross-sectional area of the nerve was tightly ligated using a 7-0 nylon suture. The incision was closed in layers (suture for muscle, surgical adhesive for skin). […] Treated rats were assayed at 1, 3, 5, and 24 hr using the paw withdrawal method (L. Randall and J. Selitto, 1957, Arch. Int. Pharmacodynam., 111:409-19). […] The Partial sciatic nerve ligation assay was performed at Eurofins/Product Safety Laboratories (Dayton, N.J.).
Animals were housed in cages which conform to the size recommendations in the most recent NIH Guide for the Care and Use of Laboratory Animals. […] The animals were fed Purina Rodent Chow #5012. The animals were acclimated to the facility for 7 days prior to the study. A pre-operative baseline paw withdrawal measure was collected for all rats. […] After recovery, a pre-dosing baseline paw withdrawal threshold was collected for all rats. […] Rats were lightly anesthetized and treated with test article or vehicle. Paw withdrawal thresholds were determined at one, three, five, and 24 hours post dosing. […] Briefly, under gas anesthesia, the skin and muscles of the thigh were reflected to expose the sciatic nerve. About one third to one half of the cross-sectional area of the nerve was tightly ligated using a 7-0 nylon suture. The incision was closed in layers (suture for muscle, surgical adhesive for skin). Test article or vehicle was administered by transcutaneous injection (C. Mestre et al., 1994, J. Pharm. Tox. Meth., 32:197-200). Briefly, the rat was lightly anesthetized and placed to flex the lower lumbar vertebrae. After palpating the vertebral processes, a 26 gauge needle was inserted through a vertebral interspace. The presence of a tail flick was considered validation of the needle placement; the solution was then injected. Paw withdrawal thresholds were assessed using a paw pressure device (L. O. Randall & J. J. Selitto, 1957, Arch. Int. Pharmacodyn., 111:409-19). The behavioral endpoint was defined as paw withdrawal. Data was analyzed by two-way analysis of variance (repeated measures) with Bonferroni tests at individual time points. Paw withdrawal threshold raw values were used for the analysis, and each route of administration was analyzed separately. Vehicle-treated groups were used as the statistical comparison groups.

T1 sequence (P41594 21-1212): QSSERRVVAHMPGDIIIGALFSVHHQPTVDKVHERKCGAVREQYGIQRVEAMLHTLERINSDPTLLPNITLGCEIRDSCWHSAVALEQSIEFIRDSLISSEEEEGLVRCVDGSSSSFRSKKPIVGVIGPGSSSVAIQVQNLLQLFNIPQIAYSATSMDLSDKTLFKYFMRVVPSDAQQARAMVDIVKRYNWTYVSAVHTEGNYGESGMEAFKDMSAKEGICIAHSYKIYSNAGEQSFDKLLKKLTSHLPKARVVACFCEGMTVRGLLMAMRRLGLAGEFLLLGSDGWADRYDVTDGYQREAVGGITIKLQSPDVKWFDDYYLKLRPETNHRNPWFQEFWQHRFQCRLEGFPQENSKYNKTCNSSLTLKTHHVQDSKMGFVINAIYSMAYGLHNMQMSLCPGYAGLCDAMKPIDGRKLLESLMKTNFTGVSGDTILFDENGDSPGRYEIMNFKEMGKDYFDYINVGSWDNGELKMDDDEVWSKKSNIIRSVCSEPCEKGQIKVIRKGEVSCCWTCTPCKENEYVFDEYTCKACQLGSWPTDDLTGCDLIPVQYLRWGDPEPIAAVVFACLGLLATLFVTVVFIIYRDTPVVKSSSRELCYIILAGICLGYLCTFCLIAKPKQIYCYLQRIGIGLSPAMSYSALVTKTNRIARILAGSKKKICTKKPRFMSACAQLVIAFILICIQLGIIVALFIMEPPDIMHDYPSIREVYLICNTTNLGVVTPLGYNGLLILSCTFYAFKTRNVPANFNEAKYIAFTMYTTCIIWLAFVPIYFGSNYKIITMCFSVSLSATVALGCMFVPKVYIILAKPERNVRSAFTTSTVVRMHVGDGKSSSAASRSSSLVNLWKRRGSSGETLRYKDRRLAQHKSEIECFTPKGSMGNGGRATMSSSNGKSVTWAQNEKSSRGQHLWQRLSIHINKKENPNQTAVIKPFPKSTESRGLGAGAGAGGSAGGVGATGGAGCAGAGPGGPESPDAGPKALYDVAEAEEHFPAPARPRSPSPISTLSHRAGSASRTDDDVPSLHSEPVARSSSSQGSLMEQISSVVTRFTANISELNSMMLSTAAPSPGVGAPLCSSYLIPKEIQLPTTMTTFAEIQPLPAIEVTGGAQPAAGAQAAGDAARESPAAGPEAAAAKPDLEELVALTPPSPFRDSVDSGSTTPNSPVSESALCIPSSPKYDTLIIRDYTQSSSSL

`Cc1cc(C)cc(NC(=O)c2cc(Cl)ccc2O)c1` [Compound 19]: the EC50 on mGluR5 was determined as 0.122 µM. On mGluR1, the “mGluR1/mGluR5 Ratio” value stood at 9.39 and the EC50 was determined as 1.14 µM.
For `Cc1cccc(NC(=O)c2cc(Cl)ccc2O)c1` [Compound 8], in that order: 0.084 µM, 28.40 and 2.39 µM.
Regarding `COC(=O)[C@@H]1CCCN1C(=O)Oc1ccc(Cl)cc1C(=O)Nc1ccc([N+](=O)[O-])cc1Cl` [Compound 25], the EC50 on mGluR5 and at mGluR1 was over 10 µM throughout.
For the compound `NCC1(CC(=O)O)CCCCC1` [Gabapentin, gabapentin, reference compound], in assay [1] (group Average (N 6)), the “% MPE (0-100) 1 hr” value is listed as 63.2%, the “Paw withdrawal thresholds (g; raw data) 1 hr” value is listed as 165.0 g, the “Raw MPE (%) 1 hr” value is recorded as 77.4% and the “% MPE (0-100) 3 hrs” value stood at 43.5%. For the same compound, in assay [1] (group Average (N 6)), the “Paw withdrawal thresholds (g; raw data) 3 hrs” value amounted to 134.2 g, the “Raw MPE (%) 3 hrs” value worked out at 47.7%, the “% MPE (0-100) 5 hrs” value was 17.4% and the “Paw withdrawal thresholds (g; raw data) 5 hrs” value stood at 96.7 g. Also, in assay [1] (group Average (N 6)), the “Raw MPE (%) 5 hrs” value is given as −0.6%, the “% MPE (0-100) 24 hrs” value was determined as 16.4%, the “Paw withdrawal thresholds (g; raw data) 24 hrs” value is 98.3 g and the “Raw MPE (%) 24 hrs” value is 6.7%. Further, in assay [1] (individual rat), the “% MPE (0-100) 1 hr” value was 53.9% and 100.0% (3×) and 0.8% and 24.4%; the “Paw withdrawal thresholds (g; raw data) 1 hr” value is 145 g and 250 g and 190 g and 100 g and 120 g and 185 g; the “Raw MPE (%) 1 hr” value is 53.9% and 177.6% and 106.9% and 0.8% and 24.4% and 101.0%; the “% MPE (0-100) 3 hrs” value was 0.0% (2×) and 34.6% (2×) and 91.7% and 100.0%. In assay [1] (individual rat), the “Paw withdrawal thresholds (g; raw data) 3 hrs” value is 70 g and 125 g (2×) and 90 g and 165 g and 230 g; the “Raw MPE (%) 3 hrs” value was −43.8% and 34.6% (2×) and −15.3% and 91.7% and 184.4%; the “% MPE (0-100) 5 hrs” value is 0.0% (3×) and 43.6% and 3.8% and 56.9%; the “Paw withdrawal thresholds (g; raw data) 5 hrs” value was 60 g and 130 g and 85 g and 100 g and 140 g and 65 g. Also, in assay [1] (individual rat), the “Raw MPE (%) 5 hrs” value was −49.3% and 43.6% and −16.1% and 3.8% and 56.9% and −42.7%; the “% MPE (0-100) 24 hrs” value is 0.0% (3×) and 23.3% and 58.7% and 16.2%; the “Paw withdrawal thresholds (g; raw data) 24 hrs” value was 85 g and 110 g and 80 g and 75 g and 135 g and 105 g; the “Raw MPE (%) 24 hrs” value is −12.1% and 23.3% and −19.2% and −26.3% and 58.7% and 16.2%. Moreover, the reversing hyperalgesia entry in assay [1] (rat) is reported as “effective in reversing hyperalgesia”.
Turning to `C#Cc1cccc(NC(=O)c2cc(Cl)ccc2O)c1` [Compound 10], the EC50 on mGluR5 was 0.122 µM; at mGluR1, 0.932 µM. Also, the “mGluR1/mGluR5 Ratio” value on mGluR1 is listed as 7.64.
On the same counts, the results for `C=Cc1cccc(NC(=O)c2cc(Cl)ccc2O)c1` [Compound 11, 5-Chloro-2-hydroxy-N-(3-vinylphenyl)benzamide] are 0.048 µM, 0.371 µM and 7.73.
On the same counts, the results for `O=C(Nc1cc(C(F)(F)F)cc(C(F)(F)F)c1)c1cc(Cl)ccc1O` [Compound 20] are 0.091 µM, 0.111 µM and 1.22.
`O=C(Nc1ccccc1)c1cc(Cl)ccc1O` [Compound 6]: on mGluR5, the EC50 was determined as 0.731 µM. Further, on mGluR1, the “mGluR1/mGluR5 Ratio” value is 4.16 and the EC50 came out at 3.04 µM.
Consider `O=C(Nc1cccc(Cl)c1)c1cc(Cl)ccc1O` [Compound 14], for which the EC50 at mGluR5 amounted to 0.126 µM. Moreover, at mGluR1, the “mGluR1/mGluR5 Ratio” value came to 4.15 and the EC50 turned out to be 0.523 µM.
Take `CCc1cccc(NC(=O)c2cc(Cl)ccc2O)c1` [Compound 12, 5-Chloro-2-hydroxy-N-(3-ethylphenyl)benzamide]: the EC50 on mGluR5 was 0.135 µM. Also, at mGluR1, the “mGluR1/mGluR5 Ratio” value stood at 6.36 and the EC50 is 0.859 µM.
As for `CN(C)C(=O)Oc1ccc(Cl)cc1C(=O)Nc1ccc([N+](=O)[O-])cc1Cl` [Compound 23, 4-chloro-2-(2-chloro-4-nitrophenylcarbamoyl)phenyl dimethyl carbamate], the half-maximal effective concentration (EC50) on mGluR5 and at mGluR1 was over 10 µM in each case.
In the case of `N#Cc1cccc(NC(=O)c2cc(Cl)ccc2O)c1` [Compound 16, 5-Chloro-N-(3-cyanophenyl)-2-hydroxybenzamide], the EC50 at mGluR5 was determined as 0.235 µM. Besides, at mGluR1, the “mGluR1/mGluR5 Ratio” value is on record as 42.55 and the EC50 was over 10 µM.
For `CC(C)(C)c1cccc(NC(=O)c2cc(Cl)ccc2O)c1` [Compound 18, 5-Chloro-N-(3-tert-butylphenyl)-2-hydroxybenzamide], in that order: 0.238 µM, 1.40 and 0.334 µM.
Regarding `O=C(Nc1ccc([N+](=O)[O-])cc1Cl)c1cc(Cl)ccc1OC(=O)N1CCC[C@H]1C(=O)O` [Compound 27], the EC50 at mGluR5 and at mGluR1 was over 10 µM throughout.
On to `O=C(Nc1cccc(Br)c1)c1cc(Cl)ccc1O` [Compound 9], for which, at mGluR5, the EC50 was determined as 0.166 µM. Moreover, on mGluR1, the “mGluR1/mGluR5 Ratio” value came out at 2.77 and the EC50 came to 0.459 µM.
On the same counts, the results for `O=C(Nc1ccc([N+](=O)[O-])cc1Cl)c1ccccc1O` [Compound 4, N-(2-chloro-4-nitrophenyl)-2 hydroxybenzamide] are 0.168 µM, 1.73 and 0.29 µM.
Regarding `CC(C)(C)OC(=O)[C@@H]1CCCN1C(=O)Oc1ccc(Cl)cc1C(=O)Nc1ccc([N+](=O)[O-])cc1Cl` [Compound 26], the EC50 at mGluR5 and on mGluR1 was over 10 µM in each case.
In the case of `O=C(Nc1cccc(C(F)(F)F)c1)c1cc(Cl)ccc1O` [Compound 13], the EC50 stood at 0.127 µM at mGluR5 and 0.273 µM at mGluR1. Moreover, the “mGluR1/mGluR5 Ratio” value on mGluR1 is 2.15.
Consider `O=C(Nc1ccc(Cl)c(Cl)c1)c1cc(Cl)ccc1O` [Compound 5], for which the EC50 at mGluR5 amounted to 0.09 µM; at mGluR1 it was 0.179 µM. At mGluR1, the “mGluR1/mGluR5 Ratio” value was 1.99.
For `O=C(Nc1cccc(F)c1)c1cc(Cl)ccc1O` [Compound 17], in that order: 0.138 µM, 0.598 µM and 4.33.
On the same counts, the results for `O=C(Nc1ccc([N+](=O)[O-])cc1Cl)c1cc(Cl)cc(Cl)c1O` [Compound 2, 3,5-dichoro-N-(2-chloro-4-nitrophenyl)-2 hydroxybenzamide] are 0.669 µM, 1.58 µM and 2.36.
